Test results: US8580769B2, “Treatment of obesity, metabolic syndrome, and diabetes with protein kinase C inhibitors” (The United States of America as represented by the …, priority 2011, dated 2013)

Experiments:
total (ι plus ζ) aPKC = experiment: aPKC activity and phosphorylation in intact human hepatocytes; type: cell-based; conditions: for phosphorylation of aPKC auto(trans)phosphorylation sites (p-threonine-555/560-PKC-ι/ζ): intact human hepatocytes
From the text: Human cryo-preserved hepatocytes (70-90% viability) were obtained from the Zen-Bio Corp (Research Triangle Park, North Carolina). These hepatocytes were harvested after perfusion with collagenase-containing buffer of livers surgically removed from non-diabetic patients (2 females and 6 males; ages, 43-60 years, 51±3 (mean±SEM); BMI, 23-35, 30±2) and T2DM patients (2 females and 3 males, ages, 46-68 years, 60±4; BMI, 27±2; all insulin-requiring) who had been maintained as transplant donors, but were ultimately rejected for administrative reasons. To maximize the importance of comparative differences, hepatocytes from T2DM and non-diabetic patients, and of similar age and sex, were routinely incubated and assayed side-by-side.
After thawing, the hepatocytes were distributed (approximately 10^6 cells per 100 mm plate) and incubated approximately 16 hours overnight in Dulbecco's minimal essential medium containing 5% fetal calf serum, 100 units/ml sodium-penicillin, 100 μg/ml streptomycin-sulfate, 1 μM insulin and 2 μM dexamethasone. After washing, cells were incubated first for 2 hours in William's E medium (Sigma-Aldrich, St. Louis, Mo., catalog no. W1878) containing GLUTAMAX™ (Gibco/Invitrogen, Carlsbad, Calif.), 100 units/ml sodium-penicillin, 100 μg/ml streptomycin-sulfate, 10 μM insulin, 100 nM dexamethasone, and then for 2 hours in William's E medium containing 100 units/ml sodium penicillin, 100 μg/ml streptomycin-sulfate, 100 nM dexamethasone, 0.25 mg/ml transferrin, 0.25 μg/ml sodium selenite and 10 μM insulin. Cells were then washed and incubated for 3 hours in the same medium, but lacking insulin. Where indicated, […], […] After incubation, cells were sonicated in homogenizing buffer.
(§1) Tissue and Immunoprecipitate Preparations: As previously described (Standaert et al., J. Biol. Chem. 279:24929-24934, 2004; Sajan et al., J. Lipid Res. 50:1133-1145, 2009; Sajan et al., Diabetologia 52:1197-1207, 2009; Farese et al., J. Clin. Invest. 117:2289-2301, 2007) hepatocytes and tissues from in vivo experiments were homogenized in ice-cold buffer containing 0.25 M sucrose, 20 mM Tris/HCl (pH 7.5), 2 mM EGTA, 2 mM EDTA, 1 mM phenylmethylsulfonyl fluoride (PMSF), 20 μg/ml leupeptin, 10 μg/ml aprotinin, 2 mM Na4P2O7, 2 mM Na3VO4, 2 mM NaF, and 1 μM microcystin. After centrifugation for 10 minutes at 700×g to remove unbroken cells, debris, nuclei, and floating fat, cell lysates were stored at −70° C. After addition of 1% TRITON® X-100, 0.6% Nonidet and 150 mM NaCl, lysates were cleared of insoluble materials by low-speed centrifugation and subsequently immunoprecipitated with antibodies that target: (a) aPKCs (rabbit polyclonal antiserum from Santa Cruz Biotechnologies (Santa Cruz, Calif.) that recognizes C-termini of both PKC-λ and PKC-ζ); and (b) Akt2 (Upstate Cell Signaling/Millipore, Billerica, Mass.). Immunoprecipitates were collected on Sepharose-AG beads (Santa Cruz Biotechnologies).
aPKCι Assays: aPKC enzyme activity was measured as previously described (Standaert et al., J. Biol. Chem. 279:24929-24934, 2004; Sajan et al., J. Lipid Res. 50:1133-1145, 2009; Sajan et al., Diabetologia 52:1197-1207, 2009; Farese et al., J. Clin. Invest. 117:2289-2301, 2007). […]

Akt2 = biological target: T1, Akt2 (Mus musculus, UniProt Q60823); experiment: tissue Akt activity in Het-MλKO mice; type: in vivo; conditions: for Akt activation in adipose tissue / Akt activation in muscle: 7-day treatment s.c. (ATM 60 mg/kg; ICAPP 0.4 mg/kg)
T1 construct: from tissue; host or cells: mouse liver, quadriceps muscle and abdominal adipose tissue
From the text: In Vivo Mouse Studies: Male wild type (WT) and heterozygous muscle-specific PKC-λ knockout (Het-MλKO) mice were generated as described (Farese et al., J. Clin. Invest. 117:2289-2301, 2007) and used at 6-12 months of age, when the O/MS/T2DM phenotype in MλKO mice is well-developed. Mice were housed in a temperature-controlled environment with alternating 12-hour light and dark cycles, and fed ad libitum with standard chow (Harlan Teklad 20/18 with 5% fat, (10% of calories from fat)). All experimental procedures in mice were approved by the Institutional Animal Care and Use Committees of the Roskamp Institute and the University of South Florida College of Medicine, and the James A. Haley Veterans Administration Medical Center Research and Development Committee, Tampa, Fla.
(ICAPP; prepared by Southern Research, Birmingham, Ala.) at 0.4 mg/kg body weight. On the morning of the eighth day of inhibitor treatment, mice were injected intraperitoneally (IP) with 0.9% saline or saline containing 1 U insulin/kg body weight 15 minutes before sacrifice, an optimal time for studies of insulin stimulation of aPKC and Akt in liver, muscle and adipose tissues (Standaert et al., J. Biol. Chem. 279:24929-24934, 2004; Sajan et al., J. Lipid Res. 50:1133-1145, 2009; Sajan et al., Diabetologia 52:1197-1207, 2009; Farese et al., J. Clin. Invest. 117:2289-2301, 2007). After killing, blood, liver, quadriceps muscle and abdominal adipose tissues were rapidly removed and homogenized in buffer with a POLYTRON® homogenizer.
as §1
Akt2 Assay: Akt2 enzyme activity was measured with a kit obtained from Upstate Cell Signaling, as described (Standaert et al., J. Biol. Chem. 279:24929-24934, 2004; Sajan et al., J. Lipid Res. 50:1133-1145, 2009; Sajan et al., Diabetologia 52:1197-1207, 2009; Farese et al., J. Clin. Invest. 117:2289-2301, 2007). In brief, Akt2 was immunoprecipitated from lysates with rabbit polyclonal antibodies, collected on Sepharose-AG beads, and incubated as per kit directions. Akt1/2 activation was also assessed by immunoblotting for phosphorylation of serine-473.

T1 sequence (Q60823 whole entry): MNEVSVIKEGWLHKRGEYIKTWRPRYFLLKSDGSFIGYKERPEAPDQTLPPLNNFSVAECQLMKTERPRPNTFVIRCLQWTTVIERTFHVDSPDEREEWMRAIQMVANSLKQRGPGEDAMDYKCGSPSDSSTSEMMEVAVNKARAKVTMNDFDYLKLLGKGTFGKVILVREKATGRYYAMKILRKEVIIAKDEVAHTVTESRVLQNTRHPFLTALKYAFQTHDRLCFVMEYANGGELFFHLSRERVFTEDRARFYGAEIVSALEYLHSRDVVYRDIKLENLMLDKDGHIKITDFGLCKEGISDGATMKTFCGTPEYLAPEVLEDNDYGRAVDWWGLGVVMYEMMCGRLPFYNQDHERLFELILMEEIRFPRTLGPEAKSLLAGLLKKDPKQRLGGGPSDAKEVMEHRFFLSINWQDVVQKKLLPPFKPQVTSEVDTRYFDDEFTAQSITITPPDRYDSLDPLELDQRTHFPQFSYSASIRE

Structure (SMILES)	total aPKC activity in intact hepatocytes (total (ι plus ζ) aPKC; human hepatocytes)	phosphorylation of aPKC auto(trans)phosphorylation sites (p-threonine-555/560-PKC-ι/ζ) (total (ι plus ζ) aPKC)	Akt activation in adipose tissue (Akt2; Het-MλKO mice)	Akt activation in muscle (Akt2; Het-MλKO mice)	Akt activation/activity in liver (Akt2; Het-MλKO mice, s.c. once daily (ATM 60 mg/kg; ICAPP 0.4 mg/kg; ICAP 0.5 mg/kg))	insulin-provoked increase in aPKC activity (total (ι plus ζ) aPKC; non-diabetic human hepatocytes, 6 hours, 100 nM insulin, 100 nM ICAP)	Hepatic Akt activity (Akt2; ICAP-treated Mλ-Het KO mice (n = 12), 0.5 mg/kg body weight/day x 8 days s.c., mean ± SEM) [cpm/immunoppt]	PDK1-dependent phosphorylation of activation loop sites of PKC-ι/ζ (threonine-403/410) (total (ι plus ζ) aPKC; human hepatocytes)	basal immunoprecipitable aPKC activity (total (ι plus ζ) aPKC; human hepatocytes, basal (no insulin))	inhibition of insulin-stimulated total (ι plus ζ) aPKC activity in intact human hepatocytes (total (ι plus ζ) aPKC; non-diabetic human hepatocytes, 4 hours)
O=C([O-])CC([S][Au])C(=O)[O-] (stereo not shown) [ATM, aurothiomalate, reference compound]	diminished	diminished	increased or trended upward	increased or trended upward	increased or trended upward					
NC(=O)c1ncn([C@@H]2C[C@H](CO)[C@@H](O)[C@H]2O)c1N [ICAP, 1H-imidazole-4-carboxamide 5-amino-1-[2,3-dihydroxy-4-[hydroxymethyl]cyclopentyl]-[1R-(1α,2β,3β,4α)]]						inhibited	1151 ± 226			
NC(=O)c1ncn([C@@H]2C[C@H](COP(=O)(O)O)[C@@H](O)[C@H]2O)c1N [ICAPP, 1H-imidazole-4-carboxamide, 5-amino-1-[2,3-dihydroxy-4-[(phosphonooxy)methyl]cyclopentyl]-[1R-(1α,2β,3β,4α)]]		diminished	increased significantly or trended upward	increased significantly or trended upward				did not inhibit	resistant	approximately 50%
